Data taken from ChEMBL document CHEMBL1201862, “PubChem BioAssay data set” (2004).
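Following 48 hours of exposure in 96-well plates, responses at five concentrations were used to interpolate endpoints linearly. GI50 = concentration required for 50% inhibition of growth.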 Activity calls are given as the source filed them. Cut-off read from the data, not from the text of the source: active = GI50 up to about 1.1 µM and inactive = higher.

How the values were obtained:
Assay in all cases: DTP human tumour cell line panel, 48 h
[1] = system: SF-295
[2] = system: SK-MEL-5
[3] = system: U-251
[4] = system: RPMI-8226
[5] = system: UO-31
[6] = system: NCI-H522
[7] = system: SN12C
[8] = system: M14
[9] = system: MDA-MB-231
[10] = system: LOX IMVI
[11] = system: MDA-MB-435
[12] = system: CAKI-1
[13] = system: CCRF-CEM
[14] = system: SW-620
[15] = system: NCI-H23
[16] = system: UACC-62
[17] = system: SK-MEL-2
[18] = system: COLO 205
[19] = system: T47D
[20] = system: IGROV-1
[21] = system: HT-29
[22] = system: OVCAR-5
[23] = system: HCT-15
[24] = system: HCT-116
[25] = system: MCF7
[26] = system: HCC 2998
[27] = system: A549
[28] = system: PC-3
[29] = system: TK-10
[30] = system: SF-268
[31] = system: SR
[32] = system: 786-0
[33] = system: NCI/ADR-RES
[34] = system: DU-145
[35] = system: KM12
[36] = system: BT-549
[37] = system: MOLT-4
[38] = system: SK-OV-3
[39] = system: OVCAR-8
[40] = system: Malme-3M
[41] = system: EKVX
[42] = system: UACC-257
[43] = system: OVCAR-3
[44] = system: SF-539
[45] = system: K562
[46] = system: A498
[47] = system: NCI-H226
[48] = system: MDA-N
[49] = system: HOP-62
[50] = system: SNB-75
[51] = system: SK-MEL-28
[52] = system: OVCAR-4
[53] = system: RXF 393
[54] = system: ACHN
[55] = system: HL-60
[56] = system: NCI-H460
[57] = system: HOP-92

SMILES: COc1cccc2c1OCC1Cc3ccccc3OC21 (stereo unspecified)
- GI50 [1]: 36.6 µM (inactive)
- GI50 [2]: 14.8 µM (inactive)
- GI50 [3]: 43.9 µM (inactive)
- GI50 [4]: 47.6 µM (inactive)
- GI50 [5]: 35.2 µM (inactive)
- GI50 [6]: > 100 µM (inactive)
- GI50 [7]: 27.7 µM (inactive)
- GI50 [8]: 44 µM (inactive)
- GI50 [9]: 31 µM (inactive)
- GI50 [10]: 33.3 µM (inactive)
- GI50 [11]: 24.7 µM (inactive)
- GI50 [12]: 61.4 µM (inactive)
- GI50 [13]: 54.1 µM (inactive)
- GI50 [14]: 41.8 µM (inactive)
- GI50 [15]: 42.4 µM (inactive)
- GI50 [16]: 45.4 µM (inactive)
- GI50 [17]: 35.4 µM (inactive)
- GI50 [18]: 32.2 µM (inactive)
- GI50 [19]: 35.2 µM (inactive)
- GI50 [20]: > 100 µM (inactive)
- GI50 [21]: 57.4 µM (inactive)
- GI50 [22]: > 100 µM (inactive)
- GI50 [23]: 43 µM
- GI50 [24]: 33.6 µM (inactive)
- GI50 [25]: 38.1 µM (inactive)
- GI50 [26]: 51.6 µM (inactive)
- GI50 [27]: 35.1 µM (inactive)
- GI50 [28]: 34.9 µM (inactive)
- GI50 [29]: 21.1 µM (inactive)
- GI50 [30]: 60.4 µM (inactive)
- GI50 [31]: 59.3 µM (inactive)
- GI50 [32]: 35.6 µM (inactive)
- GI50 [33]: 33.4 µM (inactive)
- GI50 [34]: 49.8 µM (inactive)
- GI50 [35]: 42.8 µM (inactive)
- GI50 [36]: 19.1 µM (inactive)
- GI50 [37]: 28.8 µM (inactive)
- GI50 [38]: 92.3 µM (inactive)
- GI50 [39]: 44.9 µM (inactive)
- GI50 [40]: 42.4 µM (inactive)
- GI50 [41]: 73.3 µM (inactive)
- GI50 [42]: 24.4 µM (inactive)
- GI50 [43]: 26.5 µM (inactive)
- GI50 [44]: 41.6 µM (inactive)
- GI50 [45]: 61.1 µM (inactive)
- GI50 [46]: 99.1 µM (inactive)
- GI50 [47]: > 100 µM (inactive)
- GI50 [48]: 25.4 µM (inactive)
- GI50 [49]: 36.2 µM (inactive)

SMILES: COc1ccc2c(C(=O)c3cn(CCN4CCOCC4)c4ccccc34)cccc2c1
- GI50 [1]: 5.6 µM (inactive)
- GI50 [2]: 60 µM (inactive)
- GI50 [50]: 88.5 µM (inactive)
- GI50 [3]: 7.33 µM (inactive)
- GI50 [4]: 21.2 µM (inactive)
- GI50 [5]: > 32 µM (inactive)
- GI50 [6]: 6.65 µM (inactive)
- GI50 [7]: > 71.4 µM (inactive)
- GI50 [8]: > 31.1 µM (inactive)
- GI50 [9]: > 100 µM (inactive)
- GI50 [10]: 22.3 µM (inactive)
- GI50 [11]: 8.26 µM (inactive)
- GI50 [12]: > 46 µM (inactive)
- GI50 [13]: 4.45 µM (inactive)
- GI50 [51]: > 62.4 µM (inactive)
- GI50 [14]: 31 µM (inactive)
- GI50 [52]: 12.6 µM (inactive)
- GI50 [15]: > 100 µM (inactive)
- GI50 [16]: > 29.6 µM (inactive)
- GI50 [17]: > 100 µM (inactive)
- GI50 [18]: 58.9 µM (inactive)
- GI50 [19]: 38 µM (inactive)
- GI50 [20]: > 91 µM (inactive)
- GI50 [53]: > 67.6 µM (inactive)
- GI50 [21]: 53.6 µM (inactive)
- GI50 [22]: > 100 µM (inactive)
- GI50 [23]: 51.8 µM
- GI50 [24]: 27.2 µM (inactive)
- GI50 [54]: > 96.4 µM (inactive)
- GI50 [25]: 5.01 µM (inactive)
- GI50 [26]: 41.7 µM (inactive)
- GI50 [27]: 6.76 µM (inactive)
- GI50 [55]: 18.3 µM (inactive)
- GI50 [28]: 30.8 µM (inactive)
- GI50 [29]: > 100 µM (inactive)
- GI50 [30]: > 80.2 µM (inactive)
- GI50 [31]: 47.5 µM (inactive)
- GI50 [32]: > 20.8 µM (inactive)
- GI50 [33]: > 34.4 µM (inactive)
- GI50 [34]: > 23.6 µM (inactive)
- GI50 [35]: 3.95 µM (inactive)
- GI50 [36]: > 95.5 µM (inactive)
- GI50 [37]: 15.1 µM (inactive)
- GI50 [38]: 4.22 µM (inactive)
- GI50 [56]: 4.65 µM (inactive)
- GI50 [39]: 43 µM (inactive)
- GI50 [40]: 15.8 µM (inactive)
- GI50 [41]: > 48.2 µM (inactive)
- GI50 [57]: > 100 µM (inactive)
- GI50 [42]: 75.9 µM (inactive)
- GI50 [43]: 13.6 µM (inactive)
- GI50 [44]: > 80 µM (inactive)
- GI50 [45]: 36.6 µM (inactive)
- GI50 [46]: > 100 µM (inactive)
- GI50 [47]: > 100 µM (inactive)
- GI50 [48]: 37.8 µM (inactive)
- GI50 [49]: > 22 µM (inactive)
